Measured values reported in patent US9234000B2, “Benzylamine derivatives as inhibitors of plasma kallikrein” (KalVista Pharmaceuticals Limited, priority 2011, dated 2016).
In brackets after ≈: the same amount, converted by molar mass. Where two headings read alike, the source gives them in different places.

Columns and labels:
physchem = conditions: for solubility: pH 7, aqueous buffer, kinetic from dmso stock
Protocol: Determination of the Kinetic Solubility in Phosphate Buffer
After shaking for approximately 30 seconds the reduction in light transmission of these samples, at 650 nm, was measured (Molecular Devices Spectromax UV/visible spectrophotometer). A second measurement was taken at approximately 30 seconds later.

[1] = Determination of thermodynamic solubility in phosphate buffer; type: physicochemical; conditions: pH 7.4, aqueous buffer, thermodynamic from solid, ammonium phosphate buffer pH7.4, 290 mOsm, 37° C., nominal 1 mg/mL, read-out: Solubility in PO4 buffer
Protocol: Determination of Thermodynamic Solubility in Phosphate Buffer
The thermodynamic solubility of compound was determined in Ammonium Phosphate Buffer (pH7.4, 290 mOsm). Compounds were made up at a nominal concentration of 1 mg/mL, vortexed then placed on a shaker for 1 h, 37° C. at approximately 950 rpm. Following incubation samples were transferred to eppendorf tubes and centrifuged at 15,000 g (r.c.f.) for 10 minutes at 37° C. The concentration of compound in the supernatant was determined by LC-MS/MS analysis using a calibration line prepared from a DMSO stock.

Human plasma kallikrein = Human plasma kallikrein (Homo sapiens (Human), UniProt P03952); experiment: Determination of the IC50 for plasma kallikrein; type: biochemical; conditions: 37° C., read-out: IC50 (human PKal)
Sequence of Human plasma kallikrein (P03952 391-638): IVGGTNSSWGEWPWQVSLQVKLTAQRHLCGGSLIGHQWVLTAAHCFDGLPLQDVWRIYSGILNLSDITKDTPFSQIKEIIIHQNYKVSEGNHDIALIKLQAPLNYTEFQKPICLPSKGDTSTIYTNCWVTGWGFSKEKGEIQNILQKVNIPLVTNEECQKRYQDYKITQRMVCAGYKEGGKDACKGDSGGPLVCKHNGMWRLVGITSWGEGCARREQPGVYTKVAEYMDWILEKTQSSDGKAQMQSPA
Sequence of Human plasma kallikrein (P03952 20-390 partner): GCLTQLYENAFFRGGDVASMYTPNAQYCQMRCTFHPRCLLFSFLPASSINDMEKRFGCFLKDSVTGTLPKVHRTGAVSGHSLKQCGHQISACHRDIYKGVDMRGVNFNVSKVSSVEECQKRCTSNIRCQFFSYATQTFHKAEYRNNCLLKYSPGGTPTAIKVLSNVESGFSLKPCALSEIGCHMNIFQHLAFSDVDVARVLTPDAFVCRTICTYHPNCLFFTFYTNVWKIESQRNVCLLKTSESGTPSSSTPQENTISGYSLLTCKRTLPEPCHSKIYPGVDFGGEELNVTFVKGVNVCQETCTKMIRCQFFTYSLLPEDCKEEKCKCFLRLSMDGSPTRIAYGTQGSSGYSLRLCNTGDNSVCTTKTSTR
How it was run: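 Human plasma kallikrein incubated at 37° C with fluorogenic substrate H-DPro-Phe-Arg-AFC and varying compound concentrations. Initial reaction rate followed by absorbance change at 410 nm to give residual activity and IC50.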

Human KLK1 = Human KLK1 (Homo sapiens (Human), UniProt P06870); experiment: Determination of the IC50 for KLK1; type: biochemical; conditions: Human KLK1, 37° C., substrate H-DVal-Leu-Arg-AFC
Sequence of Human KLK1 (P06870 25-262): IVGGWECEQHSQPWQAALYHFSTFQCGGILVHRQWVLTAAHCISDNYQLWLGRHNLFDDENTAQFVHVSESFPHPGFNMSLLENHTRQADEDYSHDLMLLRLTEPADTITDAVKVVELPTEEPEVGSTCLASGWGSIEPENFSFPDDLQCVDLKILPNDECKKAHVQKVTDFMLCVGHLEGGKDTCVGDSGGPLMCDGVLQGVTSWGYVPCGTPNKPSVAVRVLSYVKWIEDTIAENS
How it was run: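 Human KLK1 incubated at 37° C with fluorogenic substrate H-DVal-Leu-Arg-AFC and a range of test compound concentrations. Residual activity taken as initial reaction rate from absorbance change at 410 nm; IC50 derived from these rates.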

[2] = fluorogenic substrate H-DPro-Phe-Arg-AFC

Row | solubility in PO4 buffer (physchem; pH 7) [µM] | solubility at 1 h [1] [µg/mL] | IC50 (Human plasma kallikrein; [2]) [nM] | IC50 (Human KLK1; Table 12) [nM] | solubility (physchem) [µM] | IC50 (Human plasma kallikrein; substrate H-DPro-Phe-Arg-AFC) [nM] | IC50 (Human KLK1; Table 13) [nM] | Compound
1 | > 235 | 14.6 (≈ 24.5 µM) | 47 | > 10000 | – | – | – | CCOc1ccc(C[C@@H](NC(=O)c2ccccc2)C(=O)N(C)[C@@H](Cc2ccccc2)C(=O)NCc2ccc(CN)cc2)cc1 [Example 38, N-[(R)-1-{[(S)-1-(4-Aminomethyl-benzylcarbamoyl)-2-phenyl-ethyl]-methyl-carbamoyl}-2-(4-ethoxy-phenyl)-ethyl]-benzamide]
2 | – | 0.8 (≈ 1.27 µM) | 83 | – | 12 (≈ 7.55 µg/mL) | – | – | CCOc1ccc(C[C@@H](NC(=O)c2cccc3ccccc23)C(=O)N[C@@H](Cc2ccccc2)C(=O)NCc2ccc(CN)cc2)cc1 [Example 54, Naphthalene-1-carboxylic acid [(R)-1-[(S)-1-(4-aminomethyl-benzylcarbamoyl)-2-phenyl-ethylcarbamoyl]-2-(4-ethoxy-phenyl)-ethyl]-amide]
3 | – | 1.5 (≈ 2.45 µM) | 31 | – | 36 (≈ 22.1 µg/mL) | – | – | CCOc1ccc(C[C@@H](NC(=O)c2ccc(Cl)cc2)C(=O)N[C@@H](Cc2ccccc2)C(=O)NCc2ccc(CN)cc2)cc1 [Example 55, N-[(R)-1-[(S)-1-(4-Aminomethyl-benzylcarbamoyl)-2-phenyl-ethylcarbamoyl]-2-(4-ethoxy-phenyl)-ethyl]-4-chloro-benzamide]
4 | – | 0.9 (≈ 1.39 µM) | 500 | – | 36 (≈ 23.3 µg/mL) | – | – | CCOc1ccc(C[C@@H](NC(=O)c2ccc(C(F)(F)F)cc2)C(=O)N[C@@H](Cc2ccccc2)C(=O)NCc2ccc(CN)cc2)cc1 [Example 56, N-[(R)-1-[(S)-1-(4-Aminomethyl-benzylcarbamoyl)-2-phenyl-ethylcarbamoyl]-2-(4-ethoxy-phenyl)-ethyl]-4-trifluoromethyl-benzamide]
5 | – | 4.1 (≈ 6.33 µM) | 170 | – | 36 (≈ 23.3 µg/mL) | – | – | CCOc1ccc(C[C@@H](NC(=O)c2ccc(Cl)cc2Cl)C(=O)N[C@@H](Cc2ccccc2)C(=O)NCc2ccc(CN)cc2)cc1 [Example 58, N-[(R)-1-[(S)-1-(4-Aminomethyl-benzylcarbamoyl)-2-phenyl-ethylcarbamoyl]-2-(4-ethoxy-phenyl)-ethyl]-2,4-dichloro-benzamide]
6 | – | 7.7 (≈ 12.5 µM) | 78 | – | 36 (≈ 22.1 µg/mL) | – | – | CCOc1ccc(C[C@@H](NC(=O)c2ccc(F)c(F)c2)C(=O)N[C@@H](Cc2ccccc2)C(=O)NCc2ccc(CN)cc2)cc1 [Example 59, N-[(R)-1-[(S)-1-(4-Aminomethyl-benzylcarbamoyl)-2-phenyl-ethylcarbamoyl]-2-(4-ethoxy-phenyl)-ethyl]-3,4-difluoro-benzamide]
7 | – | 17.7 (≈ 27.6 µM) | – | – | – | 22 | 7200 | CCOc1ccc(C[C@@H](NC(=O)c2sccc2NC(C)=O)C(=O)N[C@@H](Cc2ccccc2)C(=O)NCc2ccc(CN)cc2)cc1 [Example 179, 3-Acetylamino-thiophene-2-carboxylic acid-[(R)-1-[(S)-1-(4-aminomethyl-benzylcarbamoyl)-2-phenyl-ethylcarbamoyl]-2-(4-ethoxy-phenyl)-ethyl]-amide]
8 | – | 61.6 (≈ 103 µM) | – | – | – | 10 | > 10000 | CCOc1ccc(C[C@@H](NC(=O)c2sccc2C)C(=O)N[C@@H](Cc2cccnc2)C(=O)NCc2ccc(CN)cc2)cc1 [Example 181, 3-Methyl-thiophene-2-carboxylic acid [(R)-1-[(S)-1-(4-aminomethyl-benzylcarbamoyl)-2-pyridin-3-yl-ethylcarbamoyl]-2-(4-ethoxy-phenyl)-ethyl]-amide]
9 | – | 0.22 (≈ 0.358 µM) | – | – | – | 45 | 7600 | CCOc1ccc(C[C@@H](NC(=O)c2ccccc2)C(=O)N[C@@H](Cc2ccc(F)c(F)c2)C(=O)NCc2ccc(CN)cc2)cc1 [Example 200, N—[(R)-1-[(S)-1-(4-Aminomethyl-benzylcarbamoyl)-2-(3,4-difluoro-phenyl)-ethylcarbamoyl]-2-(4-ethoxy-phenyl)-ethyl]-benzamide]
